Test results reported in paper PMC10812521, “Boesenbergia rotunda and Its Pinostrobin for Atopic Dermatitis: Dual 5-Lipoxygenase and Cyclooxygenase-2 Inhibitor and Its Mechanistic Study through Steady-State Kinetics and Molecular Modeling” (Antioxidants, 2024).
Entries after “also recorded” stand apart in the source; their conditions may differ. Where two headings read alike, the source gives them in different places.

Key:
[1] = Ferric reducing antioxidant power (FRAP); conditions: pure compound
Method: Each extract/EOs sample (10 µL) was added to each well of a 96-well plate at various concentrations (1–5 mg/mL), followed by a freshly prepared FRAP reagent (190 µL). The mixture was then incubated at room temperature for 4 min. Vivid blue resulted from the […]. The absorbance was further measured at 595 nm. The FRAP value (Equation (6)) was determined by calculating the concentration of ferric ions in the samples relative to the calibration curve of FeSO4 (FRAP value in µM FeSO4/mg dry weight of extract). (6) FRAP value=C ×v (mL)/d × c (mg/mL) where C is the calibrated sample concentration, v is the volume sample, d is the dilution factor, and c is the concentration of the tested sample.

Staphylococcus aureus = assay: Broth dilution assay (MIC); type: cell-based; conditions: pure compounds, inactive at >200 µg/mL
Method: The MIC values were determined using a broth dilution assay. Tetracycline used as an antibiotic was dissolved in 50% ethanol while EOs, extracts, and pinostrobin dissolved in DMSO (0.2% v/v) were suspended in an LB medium to obtain the final concentrations of EOs/extract, pinostrobin, and tetracycline in the range of 0.1562–200 µg/mL. Then, 20 µL of the bacterial culture with an OD600 value of ~0.5 was taken into each tube, which was continuously inoculated. Afterward, the treated culture was incubated at 37 °C for 24 h in a shaking condition (180 rpm). The absorbance was further measured at 600 nm. An LB medium and 0.2% DMSO were used as positive controls, while the cell culture without treatment in an LB medium was used as a negative control. The experiments were performed in triplicate.

[2] = molecular target: T1, Human recombinant 5-lipoxygenase (Homo sapiens, UniProt P09917); assay: Steady-state inhibition kinetic study of 5-lipoxygenase; type: biochemical
T1 construct: purchased Cayman Chemical
T1 sequence (P09917 1-674): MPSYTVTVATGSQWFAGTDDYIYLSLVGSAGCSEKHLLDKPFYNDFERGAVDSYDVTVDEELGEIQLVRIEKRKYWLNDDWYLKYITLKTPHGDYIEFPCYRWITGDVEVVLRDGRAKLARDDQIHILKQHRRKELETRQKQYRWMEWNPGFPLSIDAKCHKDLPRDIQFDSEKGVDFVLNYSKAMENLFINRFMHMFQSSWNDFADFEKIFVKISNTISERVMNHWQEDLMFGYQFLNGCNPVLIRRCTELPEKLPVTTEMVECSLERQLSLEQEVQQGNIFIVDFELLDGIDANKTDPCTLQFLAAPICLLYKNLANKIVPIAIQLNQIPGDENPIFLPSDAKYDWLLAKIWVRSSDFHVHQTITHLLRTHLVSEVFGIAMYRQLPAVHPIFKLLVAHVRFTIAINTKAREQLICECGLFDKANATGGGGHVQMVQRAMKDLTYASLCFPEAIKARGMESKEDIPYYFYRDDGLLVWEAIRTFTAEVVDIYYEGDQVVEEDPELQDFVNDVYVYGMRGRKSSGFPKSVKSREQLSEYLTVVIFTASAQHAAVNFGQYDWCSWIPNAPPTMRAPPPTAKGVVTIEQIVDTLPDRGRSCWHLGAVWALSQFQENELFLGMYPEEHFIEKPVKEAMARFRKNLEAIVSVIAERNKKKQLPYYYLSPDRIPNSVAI
Method: The same experimental conditions as described previously for determining enzyme inhibition were applied. The reaction was performed at 25 °C and measured kinetically for 30 min (BioTek Synergy H1 microplate reader, Winooski, VT, USA). […] Furthermore, the enzymes’ velocity was plotted versus the substrate concentration, which was fitted to the Henri–Michaelis–Menten equation. In addition, the data were transformed to fit a double reciprocal plot using the Lineweaver–Burk method. […] All measurements were performed in two rounds of triplicate wells.

[3] = topical application, mouse model, 1000 mg/kg; cited from earlier work
[4] = Nitric oxide (NO) radical scavenging activity (Griess reaction); conditions: pure compounds
Method: The technique was adapted and modified from the study of Thadhani et al.. The Griess reaction was used to determine the NO radical scavenging activity. The NO radicals were generated from 10 mM sodium nitroprusside (SNP) in phosphate-buffered saline (PBS), pH 7.3. A range of sample concentrations (10 µL, 0.625–5 mg/mL) were reacted with 10 mM SNP in PBS at pH 7.3 (90 µL) at room temperature for 90 min in a 96-well plate under visible polychromatic light. Afterward, 1% sulfanilamide in 5% H3PO4 (50 µL) was added to the preincubated extract, followed by subsequent incubation in a dark condition with ambient temperature for 5 min. Following that, 50 µL of 0.1% w/v N-(1-naphtyl)-ethylenediamine (NED) in distilled water was added to each well before incubating at room temperature for 30 min in a dark condition. The diazotization of sulfanilamide with a nitrite ion occurred, followed by a coupling reaction with NED solution to generate a magenta-colored chromophore. The absorbance was measured using a microplate reader at 540 nm. Quercetin was used as a positive control. […] A solvent was used as a control. The percentage inhibition was calculated using Equation (5). (5) % Inhibition=Absorbance control−Absorbance sample/Absorbance control×100

Human recombinant 5-LOX = molecular target: T2, Human recombinant 5-LOX (Homo sapiens, UniProt P09917); assay: 5-Lipoxygenase inhibitory assay; type: biochemical
T2 construct: purchased Cayman Chemical
T2 sequence (P09917 1-674): T1 sequence (P09917 1-674)
Method: We performed this method according to a previous study with some modifications. Human recombinant 5-LOX (Cayman Chemical, E.C. 1.13.11.34, Ann Arbor, MI, USA) was used in this study. Various concentrations of 20 µL of the tested samples (dissolved in polysorbate-20 and DMSO) were plated in a 96-well UV transparent plate followed by the addition of 100 µL of 0.1 M potassium phosphate buffer, pH 6.3. The mixture was maintained at 25 °C before the addition of enzyme. We added 20 µL of 100 U 5-LOX enzyme (in 0.1 M potassium phosphate buffer, pH 6.3) to the sample solution followed by a 4 min incubation at 25 °C. Afterward, the reaction was initiated by adding 10 µL of 1 mM arachidonic acid as a substrate. The incubation was performed at 25 °C for 30 min, and the absorbance was measured at 234 nm using a microplate reader. The nonenzymatic control was used as a background. […] The experiments were performed in two rounds to generate five replicate wells in total. The percentage of inhibition was calculated by Equation (8), and the IC50 values were determined. (8) % Inhibition=Absorbance control−Absorbance sample/Absorbance control×100

In the case of COc1cc(O)c2c(c1)O[C@H](c1ccccc1)CC2=O [Pinostrobin, pinostrobin], the “FRAP (mM FeSO4/g Extract)” value [1] is reported as 1.04 ± 0.01 mM FeSO4/g Extract, the MIC (Staphylococcus aureus; Staphylococcus aureus, read-out: MIC) is reported as > 200 µg/mL and the “MIC” value (Staphylococcus aureus) is reported as >200 µg/mL. For the same compound, the Ki [2] was 2280 nM, the “type of inhibition against 5-LOX” value ([2]; Michaelis-Menten and Lineweaver-Burk plots) was “mixed-type inhibition; also recorded: mixed-type inhibitor” and the dermal toxicity [3] was “no dermal toxicity was observed”. The “NO Radical; IC50” value [4] was >1000 µg/mL, the IC50 (Human recombinant 5-LOX; read-out: 5-LOX IC50) was 499 nM and the IC50 (Human recombinant 5-LOX; read-out: 5-LOX IC50 (µg/mL) (converted)) was 499 nM. The “fold superior 5-LOX inhibitory activity than BD” value (Human recombinant 5-LOX; relative to BD) was 4 fold and the “fold superior 5-LOX inhibitory activity to NDGA” value (Human recombinant 5-LOX; relative to NDGA) was 10 fold.
